Data as given in US9833497B2, “Human originated EGF domain proteins and use of the same” (CHENGDU SOURCEBIO LIMITED-LIABILITY COMPANY, priority 2013, dated 2017).

What was measured:
Assay type in all cases: cell-based
Klebsiella pneumonia = assay: MIC against Gram-negative bacteria: Klebsiella pneumonia; settings: 5×10^5 CFU/mL; for MIC K. pneumonia: two-fold serial dilution
Outline: (§1)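 Bacteria grown in LB at 37° C to McFarland 0.5, resuspended and seeded at 5×10^5 CFU/mL in 96-well plates. Purified human EGF-domain proteins two-fold serially diluted, triplicate wells; cultured at 37° C, shaking 175 rpm. MIC = lowest protein concentration with no growth.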

Pseudomonas aeruginosa = assay: MIC against Gram-negative bacteria: Pseudomonas aeruginosa; settings: 5×10^5 CFU/mL; for MIC P. aeruginosa: two-fold serial dilution
Outline: as §1

Moraxella catarrhalis = assay: MIC against Gram-negative bacteria: Moraxella catarrhalis; settings: 5×10^5 CFU/mL; for MIC M. catarrhalis: two-fold serial dilution
Outline: as §1

Proteus mirabilis = assay: MIC against Gram-negative bacteria: Proteus mirabilis; settings: 5×10^5 CFU/mL; for MIC P. mirabilis: two-fold serial dilution
Outline: as §1

Aeromonas hydrophila = assay: MIC against Gram-negative bacteria: Aeromonas hydrophila; settings: 5×10^5 CFU/mL; for MIC A. hydrophila: two-fold serial dilution
Outline: as §1

Serratia marcescens = assay: MIC against Gram-negative bacteria: Serratia marcescens; settings: 5×10^5 CFU/mL; for MIC S. marcescens: two-fold serial dilution
Outline: as §1

E. coli BL21 = assay: MIC against Gram-negative bacteria: E. coli BL21; settings: 5×10^5 CFU/mL; for MIC E. coli BL21: two-fold serial dilution
Outline: as §1

Enterobacter cloacae = assay: MIC against Gram-negative bacteria: Enterobacter cloacae; settings: 5×10^5 CFU/mL; for MIC E. cloacae: two-fold serial dilution
Outline: as §1

Proteus vulgaris = assay: MIC against Gram-negative bacteria: Proteus vulgaris; settings: 5×10^5 CFU/mL; for MIC P. vulgaris: two-fold serial dilution
Outline: as §1

Citrobacter diversus = assay: MIC against Gram-negative bacteria: Citrobacter diversus; settings: 5×10^5 CFU/mL; for MIC C. diversus: two-fold serial dilution
Outline: as §1

E. coli DH5α = assay: Antibacterial activity: MIC and growth curve against E. coli DH5α in 96-well plate; settings: minimal inhibitory concentration against E. coli DH5α; 96-well plate, 5×10^5 CFU/mL, 37° C., judged after 8 h
Outline: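 Log-phase bacteria (OD600 ~0.5) resuspended in LB at 5×10^5 CFU/mL, exposed to recombinant protein at 50, 25, 12.5 μg/mL final in triplicate, 37 °C shaking at 175 rpm. OD600 read every 30 min; MIC is lowest concentration showing no growth.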

[1] = Klebsiella pneumonia, 96-well plate, 37° C., 10 h
[2] = Pseudomonas aeruginosa, 96-well plate, 37° C., 10 h
[3] = Moraxella catarrhalis, 96-well plate, 37° C., 10 h
[4] = Proteus mirabilis, 96-well plate, 37° C., 10 h
[5] = Aeromonas hydrophila, 96-well plate, 37° C., 10 h
[6] = Serratia marcescens, 96-well plate, 37° C., 10 h
[7] = E. coli BL21, 96-well plate, 37° C., 10 h
[8] = Enterobacter cloacae, 96-well plate, 37° C., 10 h
[9] = Proteus vulgaris, 96-well plate, 37° C., 10 h
[10] = Citrobacter diversus, 96-well plate, 37° C., 10 h

Substance | MIC (E. coli DH5α) [µg/mL] | MIC (μg/mL) K. pneumonia (Klebsiella pneumonia; [1]) [µg/mL] | MIC (μg/mL) P. aeruginosa (Pseudomonas aeruginosa; [2]) [µg/mL] | MIC (μg/mL) M. catarrhalis (Moraxella catarrhalis; [3]) [µg/mL] | MIC (μg/mL) P. mirabilis (Proteus mirabilis; [4]) [µg/mL] | MIC (μg/mL) A. hydrophila (Aeromonas hydrophila; [5]) [µg/mL] | MIC (μg/mL) S. marcescens (Serratia marcescens; [6]) [µg/mL] | MIC (μg/mL) E. coli BL21 (E. coli BL21; [7]) [µg/mL] | MIC (μg/mL) E. cloacae (Enterobacter cloacae; [8]) [µg/mL] | MIC (μg/mL) P. vulgaris (Proteus vulgaris; [9]) [µg/mL] | MIC (μg/mL) C. diversus (Citrobacter diversus; [10]) [µg/mL] | MIC K. pneumonia (Klebsiella pneumonia; 10 h cultivation at 37° C.) [µg/mL] | MIC P. aeruginosa (Pseudomonas aeruginosa; 10 h cultivation at 37° C.) [µg/mL] | MIC M. catarrhalis (Moraxella catarrhalis; 10 h cultivation at 37° C.) [µg/mL] | MIC P. mirabilis (Proteus mirabilis; 10 h cultivation at 37° C.) [µg/mL] | MIC A. hydrophila (Aeromonas hydrophila; 10 h cultivation at 37° C.) [µg/mL] | MIC S. marcescens (Serratia marcescens; 10 h cultivation at 37° C.) [µg/mL] | MIC E. coli BL21 (E. coli BL21; 10 h cultivation at 37° C.) [µg/mL] | MIC E. cloacae (Enterobacter cloacae; 10 h cultivation at 37° C.) [µg/mL] | MIC P. vulgaris (Proteus vulgaris; 10 h cultivation at 37° C.) [µg/mL] | further results
PRT442 (DINECEQVPKPCAHQCSNTPGSFKCICPPGQHLLGDGKSCA; listed as Homo sapiens) | 12.5 | – | – | – | – | – | – | – | – | – | – | – | – | – | – | – | – | – | – | – | MIC (Klebsiella pneumonia; K. pneumonia, 10 h cultivation at 37° C.): 12.5 µg/mL; MIC (Pseudomonas aeruginosa; P. aeruginosa, 10 h cultivation at 37° C.): 25 µg/mL; MIC (Moraxella catarrhalis; M. catarrhalis, 10 h cultivation at 37° C.): 12.5 µg/mL; MIC (Proteus mirabilis; P. mirabilis, 10 h cultivation at 37° C.): 12.5 µg/mL; MIC (Aeromonas hydrophila; A. hydrophila, 10 h cultivation at 37° C.): 50 µg/mL; MIC (Serratia marcescens; S. marcescens, 10 h cultivation at 37° C.): 25 µg/mL; MIC (E. coli BL21; E. coli BL21, 10 h cultivation at 37° C.): 50 µg/mL; MIC (Enterobacter cloacae; E. cloacae, 10 h cultivation at 37° C.): 25 µg/mL; MIC (Proteus vulgaris; P. vulgaris, 10 h cultivation at 37° C.): 12.5 µg/mL; MIC (Citrobacter diversus; C. diversus, 10 h cultivation at 37° C.): 25 µg/mL
PRT24 (ELDLCYSNPCRNGGACARREGGYTCVCRPRFTGEDCE; listed as Homo sapiens) | 12.5 | 25 | 12.5 | 12.5 | 25 | 12.5 | 25 | 25 | 12.5 | 12.5 | 25 | – | – | – | – | – | – | – | – | – | –
PRT1128 (VANSCTPNPCENDGVCTDIGGDFRCRCPAGFIDKTCS; listed as Homo sapiens) | 12.5 | – | – | – | – | – | – | – | – | – | – | 50 | 12.5 | 50 | 12.5 | 50 | 12.5 | 50 | 12.5 | 50 | MIC C. diversus (Citrobacter diversus; 10 h cultivation at 37° C.): 12.5 µg/mL
PRT142 (PCPGRYLRAGKCAELPNCLDDLGGFACECATGFELGKDGRSCV; listed as Homo sapiens) | 12.5 | 12.5 | 25 | 25 | 12.5 | 25 | 12.5 | 12.5 | 25 | 25 | 12.5 | – | – | – | – | – | – | – | – | – | –
PRT1102 (TIGSCGKNSCQHGGICHQDPIYPVCICPAGYAGRFCE; listed as Homo sapiens) | 12.5 | – | – | – | – | – | – | – | – | – | – | 12.5 | 12.5 | 12.5 | 12.5 | 12.5 | 25 | 12.5 | 12.5 | 12.5 | MIC C. diversus (Citrobacter diversus; 10 h cultivation at 37° C.): 12.5 µg/mL
PRT1334 (PINPCLRKICHPHAHCTYLGPNRHSCTCQEGYRGDGQVCL; listed as Homo sapiens) | 12.5 | – | – | – | – | – | – | – | – | – | – | – | – | – | – | – | – | – | – | – | MIC against K. pneumonia (Klebsiella pneumonia; [1]): 12.5 µg/mL; MIC against P. aeruginosa (Pseudomonas aeruginosa; [2]): 50 µg/mL; MIC against M. catarrhalis (Moraxella catarrhalis; [3]): 25 µg/mL; MIC against P. mirabilis (Proteus mirabilis; [4]): 100 µg/mL; MIC against A. hydrophila (Aeromonas hydrophila; [5]): 12.5 µg/mL; MIC against S. marcescens (Serratia marcescens; [6]): 25 µg/mL; MIC against E. coli BL21 (E. coli BL21; [7]): 12.5 µg/mL; MIC against E. cloacae (Enterobacter cloacae; [8]): 50 µg/mL; MIC against P. vulgaris (Proteus vulgaris; [9]): 25 µg/mL; MIC against C. diversus (Citrobacter diversus; [10]): 50 µg/mL
